In patent US20050049294A1, “Methods of using [3.2.0] heterocyclic compounds and analogs thereof” (priority 2003, published 2005):
Read-outs that look alike come from different tables or passages of the source.

Assays:
MES-SA/Dx5 cells = assay: cells
MES-SA cells = assay: Cell growth inhibition (resazurin, 48 hours), MES-SA
[1] = tested on: LeTx-induced cytotoxicity of RAW264.7 cells; assay: cells; conditions: Mus musculus, RAW264.7, read-out: EC50 (nM), inhibition of RAW 264.7 cell cytotoxicity mediated by anthrax lethal toxin
NCI-H292 cells = assay: Cell growth inhibition (resazurin, 48 hours), NCI-H292; type: cell-based, human; conditions: Homo sapiens, NCI-H292
[2] = molecular target: PGPH (caspase-like) activity of rabbit muscle 20S proteasomes (Oryctolagus cuniculus, UniProt A0A5F9DQW2); assay: Inhibition of caspase-like (PGPH) activity of 20S proteasome (Z-LLE-AMC); type: biochemical; conditions: Table 3; mean EC50; purified rabbit 20S proteasomes
Procedure: A commercially available fluorogenic substrate specific for the PGPH activity was used instead of the chymotrypsin substrate supplied in the proteasome assay kit described above.
The substrate Z-LLE-AMC was prepared as a 20 mM stock solution in DMSO, stored at −20° C. The source of the proteasomes was the commercially available kit from Calbiochem (Cat. #539158). As with the chymotrypsin substrate, the proteasome can cleave Z-LLE-AMC into Z-LLE and free AMC. The activity can then be determined by measuring the fluorescence of the released AMC (λex=390 nm and λem=460 nm). The proteasomes were activated with SDS and held on ice as per manufacturer's recommendation. […] The series was diluted 20-fold with assay buffer and preincubated with the proteasomes as described for the chymotrypsin-like activity. After addition of substrate, the samples were incubated at 37° C., and release of the fluorescent AMC was monitored in a fluorimeter. All data were collected and plotted as the mean of triplicate points. […] As before, the model chosen was a sigmoidal dose-response, with a variable slope.

[3] = tested on: NF-κB-mediated luciferase activity in HEK293 NF-κB/Luc cells; assay: NF-κB-mediated luciferase reporter gene assay; type: cell-based, human; conditions: for luciferase activity upon TNF-α stimulation: pretreatment of NF-κB/Luc 293 cells
Procedure: (§1) The HEK293 NF-κB/luciferase reporter cell line is a derivative of the human embryonic kidney cell line (ATCC; CRL- 1573) and carries a luciferase reporter gene under the regulation of 5×NF-κB binding sites. […] When performing the luciferase assay, the DMEM basal medium was replaced with phenol-red free DMEM basal medium and the G418 was omitted.
For NF-κB-mediated luciferase assays, HEK293 NF-κB/luciferase cells were seeded at 1.5×10^4 cells/well in 90 μl phenol-red free DMEM complete medium into Corning 3917 white opaque-bottom tissue culture plates. […] This dilution series was further diluted 40× in appropriate culture medium and ten μl aliquots were added to the test wells in triplicate resulting in final test concentrations ranging from 1 μM to 320 pM. […] For Formula II-19, a 127 μM starting dilution was made in 100% DMSO and the final test concentrations ranging from 317 nM to 0.1 nM. […] After 1 hr pretreatment, 10 μl of a 50 ng/ml TNF-α solution, prepared in the phenol-red free DMEM medium was added, and the plates were incubated for an additional 6 hr.
NF-κB inducible luciferase activity was measured at 6 hours.
as §1, with “CRL-1573)” for “CRL- 1573)”
For NF-κB-mediated luciferase assays, HEK293 NF-κB/luciferase cells were seeded at 1.5×10^4 cells/well in 90 μl phenol-red free DMEM complete medium into Corning 3917 white opaque-bottom tissue culture plates. For Formula II-2, Formula II-4 and Formula II-5A, a 400 μM starting dilution was made in 100% DMSO and this dilution was used to generate a 8-point half log dilution series. This dilution series was further diluted 40× in appropriate culture medium and ten μl aliquots were added to the test wells in triplicate resulting in final test concentrations ranging from 1 μM to 320 pM. […] After 1 hr pretreatment, 10 μl of a 50 ng/ml TNF-α solution, prepared in the phenol-red free DMEM medium was added, and the plates were incubated for an additional 6 hr.
The relative luciferase units (RLU) were measured by using a Fusion microplate fluorometer (Packard Bioscience).

[4] = molecular target: T1, chymotrypsin-like activity of rabbit muscle 20S proteasomes (Oryctolagus cuniculus, UniProt G1T4Q9); assay: Inhibition of chymotrypsin-like activity of purified rabbit muscle 20S proteasome (suc-LLVY-AMC); type: biochemical
T1 sequence (G1T4Q9 1-263): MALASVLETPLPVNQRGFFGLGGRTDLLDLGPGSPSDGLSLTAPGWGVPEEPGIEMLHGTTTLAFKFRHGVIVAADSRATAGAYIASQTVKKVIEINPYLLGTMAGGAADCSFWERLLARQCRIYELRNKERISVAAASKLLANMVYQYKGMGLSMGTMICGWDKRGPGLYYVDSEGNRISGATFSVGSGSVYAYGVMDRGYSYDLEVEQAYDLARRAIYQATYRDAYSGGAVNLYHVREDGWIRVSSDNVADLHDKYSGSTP
Procedure: This peptide substrate is specific for the chymotrypsin-like enzyme activity of the proteasome.
Omuralide was prepared as a 10 mM stock in DMSO and stored in 5 μL aliquots at −80° C. […] The assay measures the hydrolysis of Suc-LLVY-AMC into Suc-LLVY and AMC. The released coumarin (AMC) was measured fluorometrically by using λex=390 nm and λem=460 nm. The assays were performed in a microtiter plate (Corning 3904), and followed kinetically with measurements every five minutes. The instrument used was a Thermo Lab Systems Fluoroskan, with the incubation chamber set to 37° C. The assays were performed according to the manufacturer's protocol, with the following changes. The proteasome was activated as described with SDS, and held on ice prior to the assay. […] Ten microliters of each dose were added in triplicate to the assay plate, and 190 μL of the activated proteasome was added and mixed. The samples were pre-incubated in the Fluoroskan for 5 minutes at 37° C. Substrate was added and the kinetics of AMC were followed for one hour.

RPMI 8226 cells = assay: Cell growth inhibition (resazurin, 48 hours), RPMI 8226
HT-29 cells = assay: Cell growth inhibition (resazurin, 48 hours), HT-29; type: cell-based; conditions: Homo sapiens, HT-29
[5] = molecular target: T2, trypsin-like activity of purified rabbit 20S proteasomes (Oryctolagus cuniculus, UniProt G1SWK8); assay: biochemical
T2 sequence (G1SWK8 1-271): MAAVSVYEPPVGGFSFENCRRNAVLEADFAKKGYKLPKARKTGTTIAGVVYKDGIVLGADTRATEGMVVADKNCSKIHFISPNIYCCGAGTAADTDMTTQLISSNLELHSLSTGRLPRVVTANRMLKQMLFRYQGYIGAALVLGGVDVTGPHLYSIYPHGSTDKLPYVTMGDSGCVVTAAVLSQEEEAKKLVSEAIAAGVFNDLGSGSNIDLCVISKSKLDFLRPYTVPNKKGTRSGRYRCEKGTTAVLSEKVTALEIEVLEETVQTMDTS

U266 cells = assay: Cell growth inhibition (resazurin, 48 hours), U266
[6] = molecular target: T2, trypsin-like activity of purified rabbit 20S proteasomes; conditions: under the conditions tested
MDA-MB-231 cells = assay: Cell growth inhibition (resazurin, 48 hours), MDA-MB-231; type: cell-based; conditions: Homo sapiens, MDA-MB-231
PC-3 cells = assay: Cell growth inhibition (resazurin, 48 hours), PC-3; type: cell-based, human; conditions: Homo sapiens, PC-3
[7] = Table 3, mean EC50, purified rabbit 20S proteasomes, read-out: EC50 Values, Chymotrypsin-like
[8] = Homo sapiens, RPMI-8226, Table 13, RPMI 8226
[9] = Homo sapiens, RPMI-8226, read-out: RPMI 8226 EC50 (nM), Table 15, mean EC50
[10] = Homo sapiens, U-266, Table 13, U266
[11] = Homo sapiens, U-266, read-out: U266 EC50 (nM), Table 15, mean EC50

Chain of PGPH (caspase-like) activity of rabbit muscle 20S proteasomes (A0A5F9DQW2 1-212): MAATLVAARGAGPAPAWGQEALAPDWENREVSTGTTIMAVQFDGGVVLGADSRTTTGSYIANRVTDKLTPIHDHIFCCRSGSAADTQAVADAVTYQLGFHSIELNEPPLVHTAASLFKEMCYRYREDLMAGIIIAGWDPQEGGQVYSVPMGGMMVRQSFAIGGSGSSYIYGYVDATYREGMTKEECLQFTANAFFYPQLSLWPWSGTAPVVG

Row | Compound | EC50 [1] [nM] | EC50 [2] [µM] | luciferase activity upon TNF-α stimulation [3] | EC50 [4, 7] [µM] | EC50 (RPMI 8226 cells; [9]) [nM] | EC50 [5] [µM] | EC50 (U266 cells; [11]) [nM] | inhibit the trypsin-like activity of the 20S proteasome [6] | further results
1 | CC(=O)O[C@H]1C(=O)[C@@]2(C)[C@H]([C@H](OC(=O)c3ccccc3)[C@]3(O)C[C@H](OC(=O)[C@H](O)[C@@H](NC(=O)c4ccccc4)c4ccccc4)C(C)=C1C3(C)C)[C@]1(OC(C)=O)CO[C@@H]1C[C@@H]2O [Paclitaxel, reference compound] |  |  |  |  |  |  |  |  | EC50 (MES-SA/Dx5 cells; Homo sapiens, MES-SA/Dx5, read-out: EC50 (nM), mean ± SD, Table 7, MES-SA/Dx5): 2040 ± 150 nM; Fold change (MES-SA/Dx5 cells; Table 16, ratio of EC50 values (MES-SA/Dx5:MES-SA)): 798 fold; % cytotoxicity, mean ± SD (MES-SA cells): 63 ± 7%; EC50 (MES-SA cells; Homo sapiens, MES-SA, read-out: EC50 (nM) MES-SA, Table 16): 5.6 nM; EC50 (MES-SA cells; Homo sapiens, MES-SA, read-out: EC50 (nM), mean, Table 7, MES-SA): 5 ± 2 nM; EC50 (MES-SA cells; read-out: EC50 (nM) MES-SA, Table 16): 4.6 nM
2 | C[C@@]12OC(=O)[C@]1([C@@H](O)[C@H]1CCC[C@@H]3O[C@H]13)NC(=O)[C@@H]2CCCl [Formula II-5B] | 45 | 3.3 | dose-dependent decrease | 0.087 | 327 | 0.739 | 115 | able to inhibit | EC50 (NCI-H292 cells; Table 13, read-out: EC50): > 20 µM; EC50 ([3]; Homo sapiens, HEK293, representative experiment, Example 43 (FIG. 44, 45), read-out: calculated EC50 to inhibit NF-κB inducible luciferase activity): 0.261 µM; EC50 ([4]; representative experiment, Example 44 (FIG. 46, 47), read-out: EC50, chymotrypsin-like activity of the proteasome): 0.088 µM; EC50 (RPMI 8226 cells; [8]): 326 nM; EC50 (RPMI 8226 cells; Table 13, RPMI 8226): 328 nM; EC50 (HT-29 cells; Table 13, read-out: EC50): 1.07 µM; EC50 (U266 cells; [10]): 118 nM; EC50 (U266 cells; Table 13, U266): 111 nM; EC50 (MDA-MB-231 cells; Table 13, read-out: EC50): 1.04 µM; EC50 (PC-3 cells; Table 13, read-out: EC50): 1.33 µM
3 | C[C@@]12OC(=O)[C@]1([C@@H](O)[C@@H]1C=CCCC1)NC(=O)[C@@H]2CCI [Formula II-19] |  | 0.573 | dose-dependent decrease | 0.003 | 6.5 | 0.013 | 3.3 | able to inhibit | EC50 (NCI-H292 cells; NCI-H292, Table 13): 0.031 µM; EC50 (RPMI 8226 cells; [8]): 5.9 nM; EC50 (RPMI 8226 cells; Table 13, RPMI 8226): 7.1 nM; EC50 (HT-29 cells): 0.013 µM; EC50 (U266 cells; [10]): 3.2 nM; EC50 (U266 cells; Table 13, U266): 3.4 nM; EC50 (MDA-MB-231 cells): 0.017 µM; EC50 (PC-3 cells): 0.027 µM
4 | CC12OC(=O)C1(C(=O)C1CCCCC1)NC(=O)C2CCCl (stereo not drawn) [Formula II-8C] |  |  |  |  | > 20000 |  | > 20000 |  | 
5 | CC12OC(=O)C1(C(=O)C1C=CCCC1)NC(=O)C2CCCl (stereo not drawn) [Formula II-13C] | > 330 | > 20 |  | 8.2 | > 20000 | 10.7 | > 20000 | able to inhibit | 
6 | CC[C@@]12OC(=O)[C@]1([C@@H](O)[C@@H]1C=CCCC1)NC(=O)[C@@H]2CCCl [Formula II-24C] |  | > 20 | dose-dependent decrease | 2.2 |  | 3.2 |  | able to inhibit | 
7 | CCC(=O)OCC[C@H]1C(=O)N[C@@]2([C@@H](O)[C@@H]3C=CCCC3)C(=O)O[C@@]12C [Formula II-22] |  | 1.3 | dose-dependent decrease | 0.005 |  | 0.308 |  | able to inhibit | 
8 | C[C@@]12OC(=O)[C@]1([C@@H](O)[C@@H]1C=CCCC1)NC(=O)[C@@H]2CCO [Formula II-21] |  | 2.6 | dose-dependent decrease | 0.007 |  | 0.72 |  | able to inhibit | 
9 | C[C@@]12OC(=O)[C@]1([C@@H](O)[C@H]1CCC[C@H](Cl)[C@H]1O)NC(=O)[C@@H]2CCCl [Formula IV-3C] | > 330 | > 20 |  | 7.8 | > 20000 |  | 8020 |  | 
10 | C[C@H]1C(=O)N[C@@]2([C@@H](O)[C@@H]3C=CCCC3)C(=O)O[C@@]12C [Formula II-20] |  | 1.4 | dose-dependent decrease | 0.005 | 10500 | 0.318 | 3810 | able to inhibit | 
